tested on: NU14 biofilm; experiment: Biofilm Assay (crystal violet stain on PVC plates); assay type: cell-based, Escherichia coli; details: 48 hrs at room temperature, absorbance at 600 nm; untreated NU14 = 100%
Description: The Biofilm Assay was carried out according to the following steps:
Day 1 Set Up Biofilm Growth on PVC Plates
1. Sterilize PVC plates (96-well round bottom polyvinyl chloride [PVC] plates; Falcon #353911) and PVC Lids (Falcon #353913) in tissue culture hood under UV irradiation for at least 30 min.
2. Make dilution (from overnight cultures) or suspension (from either colonies on plates or freezer stocks) of bacterial cultures. Make enough of bacterial cultures for the number of wells needed. Bacterial culture need to be very dilute: at least 1:1,000 fold dilution from overnight cultures or a small quantity from colonies or freezer stocks.
3. Add 100 μl of bacterial cultures into each well. Make sure to have 1 well with LB alone as negative control and 1 well without anything for blank.
4. Cover plates with lids and leave plates undisturbed at room temperature for 48 hrs.
Day 3 Assay Biofilm With Crystal Violet Stain
5. Prepare enough PBS (w/out Mg^2+ Ca^2+) to wash biofilm plates (need at least 3 L PBS for 1-5 plates). Could use mpH2O instead of PBS.
6. Get a clean 4 L plastic beaker. Cover the bench with a large piece of absorbent pad.
7. Fill 3 containers (large enough to dip the 96-well plates in) with PBS.
8. Start washing a biofilm plate by dumping out bacterial cultures into the beaker. (Treat contents in this beaker as biohazard. Need to bleach the content before emptying it into drain.)
9. Fill the biofilm plate in the first PBS container and shake off PBS in the beaker. Rinse the biofilm 1× in the first PBS container. Put the biofilm plate into the second PBS container and rinse 2×.
10. Put the biofilm plate in the third PBS container and let sit.
11. Proceed to wash a second biofilm plate if there are any.
12. While the second biofilm plate is in the second container, rinse the first biofilm plate 1× and remove it from PBS. Decant residual PBS by banging the plate on paper towels on the bench. Leave the plate up-side-down on a clean paper towel and let the plate dry.
13. Put the second biofilm plate into the third PBS container and let sit.
14. Proceed to wash a third biofilm plate if applicable.
15. Repeat steps 8-14 until all plates are washed.
16. Let washed biofilm plates air-dry for at least 15 min.
Crystal Violet Stain and Wash
17. Fill 4 containers (large enough to dip the 96-well plates in) with PBS.
18. With a multi-channel pipet, add 125 μl of 1% Crystal Violet (in mpH2O). Stain biofilm plates sequentially for 10 min. (not more than 15 min). Give at least 2 minute break in-between staining each plates. If more than 4 biofilm plates, might want to consider staining and washing them in batches.
19. Start washing biofilm plates as above.
20. Let the washed plates air-dry for 10 minor so. […]
24. Proceed immediately to the Plate Reader and read the absorbance of the plate at 600 nm. […]

Structure (SMILES) | Bioflim Assay % of Wild Type
Cc1c(-c2ccccc2)c2n(c(=O)c1CN(C)C)[C@H](C(=O)[O-])CS2.[Li+] | 73.1%
CN(C)Cc1c(Cc2cccc3ccccc23)c(-c2ccccc2)c2n(c1=O)[C@H](C(=O)[O-])CS2.[Li+] | 6.9%
O=C([O-])[C@@H]1CSc2c(-c3ccccc3)c(Cc3cccc4ccccc34)c(CN3CCOCC3)c(=O)n21.[Li+] | 6.8%
O=C([O-])[C@@H]1CSc2c(C3CC3)c(Cc3cccc4ccccc34)c(CN3CCOCC3)c(=O)n21.[Li+] | 8.3%

tested on: NU14 adherence to type 5637 bladder cell line; experiment: Infection of bladder cells in vitro (Adherence Assay); assay type: cell-based, Escherichia coli; details: 5637 bladder cells; untreated NU14 = 100%
Description: Infection of Bladder Cells in vitro (Adherence Assay)
The infection of bladder cells in vitro was carried out according to the following steps:
Preparation of Tissue Culture Cells (Type 5637 Bladder Cell Line)
1. Place 1 ml of RPMI/10% FBS containing 1:20 dilution of 5637 cells in each well of 24 well plate.
2. Place in incubator for 3 days or until confluent growth.
Preparation of Bacterial Cells (Strains NU14 and UTI89)
1. Inoculate 20 ml of LB containing NU14 with a single colony or a loop from a frozen stock to a 250 ml flask.
2. Static growth at 37° C. for 2 days to induce pili production.
3. Harvest cells at 4,000×g for 10 minutes.
4. Resuspend in 5 ml of PBS ([…])
Infection of Tissue Culture Cells In Vitro
1. Wash each well with PBS MgCl2/CaCl2.
2. Place 1 ml of fresh medium to each well.
3. Add 10 μl of bacterial cells to each well. Triplicate plates.
4. Spin plate at 1800 rpm for 5 minutes.
5. View under 40× to see−2-3 bacterial cells/epithelial cell.
6. Place in lower incubator for 2 hours.
7. Wash two plates 5× with PBS MgCl2/CaCl2. Lyse by addition of 0.1% sarkosyl/0.5% glucose/PBS—MgCl2/CaCl2 one set and dilute for CFU.

Structure (SMILES) | Adherence Assay % of Wild Type
Cc1c(-c2ccccc2)c2n(c(=O)c1CN(C)C)[C@H](C(=O)[O-])CS2.[Li+] | 97.6%
CN(C)Cc1c(Cc2cccc3ccccc23)c(-c2ccccc2)c2n(c1=O)[C@H](C(=O)[O-])CS2.[Li+] | 21.8%
O=C([O-])[C@@H]1CSc2c(-c3ccccc3)c(Cc3cccc4ccccc34)c(CN3CCOCC3)c(=O)n21.[Li+] | 14.3%
O=C([O-])[C@@H]1CSc2c(C3CC3)c(Cc3cccc4ccccc34)c(CN3CCOCC3)c(=O)n21.[Li+] | 12.2%

Reference: patent US7411066B2, “Amino methylated 2-pyridinones” (priority 2004, dated 2008)
